Assay results: patent publication US5684151A, “1-arylsulphonyl, arylcarbonyl and 1-arylphosphonyl-3-phenyl-1,4,5,6-tetrahydropyridazines” (priority 1995, dated 1997)
Where two headings read alike, the source gives them in different places.

Columns and labels:
[1] = test system: mouse (MC3T3-E1) and human (TE-85) osteoblast-line cells; format: cell-based
In short: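 Proliferation was read as ^3H-thymidine (0.4 μCi) uptake during a 4 h pulse, which started 20 h after compound addition. Before dosing, cells sat 24 h in 0.1% FBS. Values are % times control (100%).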

[2] = biological target: T1, progestin receptor from rabbit uterus (Oryctolagus cuniculus, UniProt P06186); test: Progestin receptor binding (3H-R5020 displacement); conditions: rabbit uterine cytosol, 4° C., 18 h, read-out: IC50: Binding affinity for the progestin receptor from rabbit uterus
T1 construct: Cytosolic progestin receptor were obtained by mixing rabbit uterine tissue with a Tris buffer; from tissue; host or cells: rabbit uterus cytosol
T1 sequence (P06186 whole entry): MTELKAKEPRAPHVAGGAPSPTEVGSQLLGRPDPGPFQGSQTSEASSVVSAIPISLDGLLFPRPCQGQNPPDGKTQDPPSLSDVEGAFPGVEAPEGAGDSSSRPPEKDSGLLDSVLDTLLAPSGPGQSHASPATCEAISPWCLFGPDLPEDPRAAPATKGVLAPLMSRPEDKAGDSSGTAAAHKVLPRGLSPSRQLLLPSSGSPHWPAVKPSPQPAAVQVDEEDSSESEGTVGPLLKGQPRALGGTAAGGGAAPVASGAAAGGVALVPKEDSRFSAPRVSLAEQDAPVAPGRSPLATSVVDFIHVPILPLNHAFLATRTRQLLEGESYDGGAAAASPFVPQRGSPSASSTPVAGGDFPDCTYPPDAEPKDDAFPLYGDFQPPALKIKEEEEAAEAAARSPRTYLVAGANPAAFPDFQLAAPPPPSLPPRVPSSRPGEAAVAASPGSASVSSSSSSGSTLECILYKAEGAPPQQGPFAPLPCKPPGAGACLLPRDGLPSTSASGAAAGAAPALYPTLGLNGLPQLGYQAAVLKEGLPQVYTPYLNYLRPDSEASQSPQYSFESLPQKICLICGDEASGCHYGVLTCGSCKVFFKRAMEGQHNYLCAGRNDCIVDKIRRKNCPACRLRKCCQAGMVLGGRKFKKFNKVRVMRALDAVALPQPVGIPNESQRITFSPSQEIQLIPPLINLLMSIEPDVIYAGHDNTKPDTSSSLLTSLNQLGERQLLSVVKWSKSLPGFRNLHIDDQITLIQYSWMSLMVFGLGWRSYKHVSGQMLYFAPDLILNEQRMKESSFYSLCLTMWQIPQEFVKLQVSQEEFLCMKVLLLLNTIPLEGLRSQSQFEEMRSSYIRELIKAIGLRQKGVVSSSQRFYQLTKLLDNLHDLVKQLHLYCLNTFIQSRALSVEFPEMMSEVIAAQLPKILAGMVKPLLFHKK
In short: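 Displacement of the radioligand 3H-R5020 was measured in cytosol from homogenized rabbit uterus (pH 7.4 Tris/EDTA/DTT/molybdate buffer), with compounds at 5% final DMSO and about 18 h at 4 °C. Charcoal removed free ligand, scintillation counting quantified bound ligand, and IC50 was the concentration displacing half.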

[3] = test system: Human T47D breast carcinoma cells; test: Ex vivo progestational test (T47D proliferation); format: cell-based; conditions: SC200, 3H-thymidine incorporation
Procedure: The progestational activity of the compounds was accessed by their ability to stimulate proliferation of human breast carcinoma cells. Proliferation was measured as the ability to stimulate ^3 H-thymidine incorporation into these cells in vitro. Human T47D breast carcinoma cells (American Type Tissue Collection #133-HTB) were maintained in media consisting or RPMI 1640 supplemented with 10% fetal bovine serum, 10 ug/ml insulin, 10 U/ml pennicillin, 100 ug/ml streptomycin, and 2 mM L-glutamine. Monolayer cell cultures were trypsinized and washed in assay media consisting of phenol red-free RPMI 1640 supplemented with 5% charcoal-stripped, fetal bovine serum, and the other ingredients listed above. Cells were then plated in a 96-well plate. After a 48-hour incubation period at 37° C., the conditioned media was removed and replaced with fresh media containing test compounds in DMSO (0.1% DMSO final concentration). The cell cultures were incubated for 18 to 20 hours at 37° C. ^3 H-thymidine was then added to each well and the cell cultures were incubated at 37° C. for an additional 4 hours. Labelling was stopped by addition of un labelled thymidine. The cultures were washed twice, trypsinized and then harvested onto a filter mat. Incorporated ^3 -H-thymidine was measured by liquid scintillation counting. Data was expressed as a percent stimulation above control level which was set at 100%. An SC200 value was calculated as the concentration of test material needed to stimulate ^3 H-thymidine incorporation 200% of control.
Aspects of the application of the procedure used are described in the following: C. Christensen, D. Gunter, D. Saunders and V. Malviya, Gynecol. Oncol., 28, 25 (1987); J. Puzas, R. Drivdahl, G. Howard and D. Baylink, Proc. Soc. Exp. Biol. Med., 166, 113 (1981); and I. Keydar, L. Chen, S. Karby, F. Weiss, J. Delarea, M. Raduy, S. Chaitcik and H. Brenner, Eur. J. Cancer, 15, 659 (1979)

[4] = test system: rabbit endometrium; test: In vivo progestational test (McGinty Test); design: species or system rabbit (immature New Zealand White female); key: Active in Clauberg Assay; Active in McGinty Assay; conditions: injection into uterine horn, 72 hours
Procedure: Progestational activity was measured in vivo by the ability to stimulate the rabbit endometrium after injection into the uterine horn.
Immature New Zealand White female rabbits were injected subcutaneously for 6 days with 5.0 μg of 17β-estradiol per day. On the 7th day the rabbits were anesthetized, the abdomen opened and a uterine horn exposed. Two ligatures were placed around a segment of the uterus 3-4 cm long, leaving the major blood vessels outside the ties.
The upper ligature was tied tightly, and the lower one was left loose. A needle attached to a syringe was injected in the uterus below the second ligature and up into the area between the two ligatures. As the test material was injected, the ligature was tightened and held tight so that the needle was withdrawn without the loss of fluid. The second ligature was secured and the abdomen closed.
The rabbits were sacrificed approximately 72 hours after the injection. The uteri were removed, fixed in 10% buffered formalin, sectioned at 6μ, and stained with hematoxylin and eosin. The evaluation for endometrial proliferation was made according to a McPhail Index. Each slide was graded for each rabbit on a 0 (no response)-4 (maximum response) scale.

[5] = test system: rabbit endometrium; test: In vivo progestational test (Clauberg Test); design: species or system rabbit (immature New Zealand White female); key: Active in Clauberg Assay; Active in McGinty Assay; conditions: oral or parenteral, daily for five days
Procedure: Progestational activity was also measured in vivo by the abiity to stimulate the rabbit endometrium after either oral or parenteral administration.
[…]. Starting on the 7th day, the rabbits were given the test material daily for five days. The rabbits were sacrificed approximately 24 hours after the last administration, and the uteri were excised, trimmed and weighed. Portions of both uterine horns were fixed in 10% neutral formalin, sectioned at 6μ and stained with hematoxylin and eosin. Progestational activity was assessed as described above for the McGinty Test.

Structure (SMILES)	Osteoblast Cell Proliferation, 3H-thymidine incorporation vs control (100%) ([1]; 10^-6) [%]	Osteoblast Cell Proliferation, 3H-thymidine incorporation vs control (100%) ([1]; 10^-7) [%]	Osteoblast Cell Proliferation, 3H-thymidine incorporation vs control (100%) ([1]; 10^-8) [%]	Osteoblast Cell Proliferation, 3H-thymidine incorporation vs control (100%) ([1]; 10^-9) [%]	Osteoblast Cell Proliferation, 3H-thymidine incorporation vs control (100%) ([1]; 10^-10) [%]	IC50 [2] [nM]	T47D: Concentration to elicit a 200% increase in T47D Human breast cell proliferation [3]	In-vivo: Active in McGinty Assay [4]	In-vivo: Active in Clauberg Assay [5]
O=S(=O)(c1cc(Cl)ccc1Cl)N1CCCC(c2ccc(Cl)c(Cl)c2)=N1 [Compound 22, 3-(3,4-dichlorophenyl)-1-(2,5-dichlorobenzenesulphonyl)-1,4,5,6-tetrahydropyridazine]	86	78	66	59	40	0.54	10000		
O=S(=O)(c1cccc(C(F)(F)F)c1)N1CCCC(c2ccc(Cl)cc2)=N1 [Compound 35]	82	101	123	150	154	3.01		M	
O=S(=O)(c1cc(Cl)cc(Cl)c1)N1CCCC(c2ccc(Cl)c(C(F)(F)F)c2)=N1 [Compound 80]						0.79	85	M	
Cc1ccc(S(=O)(=O)N2CCCC(c3ccc(Cl)c(C(F)(F)F)c3)=N2)cc1 [Compound 82]						2.95	608	M	
O=S(=O)(c1ccccc1)N1CCCC(c2cccc(Cl)c2)=N1 [Compound 95]						10.2	10000		
O=S(=O)(c1ccc(C(F)(F)F)cc1)N1CCCC(c2ccc(Cl)c(Cl)c2)=N1 [Compound 97, 3-(3,4-dichlorophenyl)-1-(4-trifluoromethylbenzenesulphonyl)-1,4,5,6-tetrahydropyridazine]						0.99	92		C
O=S(=O)(c1cc(Cl)cc(Cl)c1)N1CCCC(c2ccc(Cl)c(Cl)c2)=N1 [Compound 104]						0.85	76		
O=S(=O)(c1cccc(Cl)c1Cl)N1CCCC(c2ccc(Cl)c(Cl)c2)=N1 [Compound 105, 3-(3,4-dichlorophenyl)-1-(2,3-dichlorobenzenesulphonyl)-1,4,5,6-tetrahydropyridazine]						1.87	1070		
O=S(=O)(c1cccc(Cl)c1)N1CCCC(c2ccc(Cl)c(Cl)c2)=N1 [Compound 109]						1.09	1620		
O=[N+]([O-])c1cc(S(=O)(=O)N2CCCC(c3ccc(Cl)c(Cl)c3)=N2)ccc1Cl [Compound 111]						16	10000		
O=S(=O)(c1ccc(Br)cc1)N1CCCC(c2ccc(Cl)c(C(F)(F)F)c2)=N1 [Compound 115, 3-(4-chloro-3-trifluoromethylphenyl)-1-(4-bromobenzenesulphonyl)-1,4,5,6-tetrahydropyridazine]						2.09	72		C
O=S(=O)(c1ccc(I)cc1)N1CCCC(c2ccc3ccccc3c2)=N1 [Compound 119, 3-(naphth-2-yl)-1-(4-iodobenzenesulphonyl)-1,4,5,6-tetrahydropyridazine]						2.53	868		
Cc1ccc(S(=O)(=O)N2CCCC(c3ccc4ccccc4c3)=N2)cc1 [Compound 120]						13.3	831		
O=S(=O)(c1ccc(C(F)(F)F)cc1)N1CCCC(c2ccc(Cl)c(C(F)(F)F)c2)=N1 [Compound 125, 3-(4-chloro-3-trifluoromethylphenyl)-1-(4-trifluoromethylbenzenesulphonyl)-1,4,5,6-tetrahydropyridazine]						6.66	166		C
O=S(=O)(/C=C/c1ccc(Cl)cc1)N1CCCC(c2ccc(Cl)c(Cl)c2)=N1 [Compound 170]	68	98	108	108	108	2.15	4000		
O=S(=O)(/C=C/c1ccccc1)N1CCCC(c2ccc3ccccc3c2)=N1 [Compound 174]						22.8	10000		
O=S(=O)(/C=C/c1ccc(Cl)cc1)N1CCCC(c2ccc(Cl)c(C(F)(F)F)c2)=N1 [Compound 178]						5.18	164		
O=C(c1cc(Cl)cc(Cl)c1)N1CCCC(c2ccc(Cl)c(Cl)c2)=N1 [Compound 219]	144	171	141	180	178	946	10000		
O=S(=O)(c1ccc(I)cc1)N1CCCC(c2cc(Br)c(Br)s2)=N1 [Compound 278, 3-(4,5-Dibromo-2-thienyl)-1-(4-iodobenzenesulfonyl)-1,4,5,6-tetrahydropyridazine]						1	85		C
CC1CCC(c2ccc(Cl)c(C(F)(F)F)c2)=NN1S(=O)(=O)c1ccc(I)cc1 (stereo not shown) [Compound 281, 1-(4-Iodobenzenesulfonyl)-3-(3-trifluoromethyl-4-chlorophenyl)-6-methyl-1,4,5,6-tetrahydropyridazine]						0.02	10		C
CC1CCC(c2ccc(Cl)c(Cl)c2)=NN1S(=O)(=O)c1ccc(I)cc1 (stereo not shown) [Compound 282, 1-(4Iodobenzenesulfonyl)-3-(3,4-dichlorophenyl)-6-methyl 1,4,5,6-tetrahydropyridazine]						0.2	10.5		C
